Square brackets hold non-standard residues; d marks the D form. Peptide text beside a SMILES is read from it. Phe(4-I) = N[C@@H](Cc1ccc(I)cc1)C(=O)O
Assays:
[1] = (§1) Binding affinity to opioid receptor in CD-1 mouse brain after 90 mins; settings: read-out: Kd(app)
[2] = Displacement of [131I]-[D-Ala2,4'-I-Phe8]alpha-Neoendorphin from opioid receptor in CD-1 mouse brain after 90 mins by competitive binding assay; type: tissue-based
Mus musculus = species: Mus musculus; assay: as §1; settings: tested as the 131I-labelled form
[3] = target: Kappa-type opioid receptor (Homo sapiens, UniProt P41145); assay: Displacement of [125]IBNtxA from KOR-1 (unknown origin) transfected in CHO cells after 90 mins by competitive binding assay; type: cell-based
[4] = target: Delta-type opioid receptor (Homo sapiens, UniProt P41143); assay: Displacement of [125]IBNtxA from DOR-1 (unknown origin) transfected in CHO cells after 90 mins by competitive binding assay; type: cell-based

Row | SMILES | Ki [2] [nM] | other results
1 | CC(C)C[C@H](NC(=O)[C@H](Cc1ccccc1)NC(=O)CNC(=O)[C@@H](C)NC(=O)[C@@H](N)Cc1ccc(O)cc1)C(=O)N[C@@H](CCCNC(=N)N)C(=O)N[C@@H](CCCCN)C(=O)N[C@@H](Cc1ccc([131I])cc1)C(=O)N1CCC[C@H]1C(=O)N[C@@H](CCCCN)C(=O)O |  | Kd [1]: 11 nM
2 | CC(C)C[C@H](NC(=O)[C@H](Cc1ccccc1)NC(=O)CNC(=O)CNC(=O)[C@@H](N)Cc1ccc(O)cc1)C(=O)N[C@@H](CCCNC(=N)N)C(=O)N[C@@H](CCCNC(=N)N)C(=O)N[C@@H](CCC(N)=O)C(=O)N[C@@H](Cc1ccccc1)C(=O)N[C@@H](CCCCN)C(=O)N[C@H](C(=O)N[C@H](C(=O)N[C@H](C(=O)O)[C@@H](C)O)C(C)C)C(C)C [DYNORPHIN B] | 6.7 | 
3 | CC[C@H](C)[C@H](NC(=O)[C@H](CCCNC(=N)N)NC(=O)[C@H](CCCNC(=N)N)NC(=O)[C@H](CC(C)C)NC(=O)[C@H](Cc1ccccc1)NC(=O)CNC(=O)CNC(=O)[C@@H](N)Cc1ccc(O)cc1)C(=O)N[C@@H](CCCNC(=N)N)C(=O)N1CCC[C@H]1C(=O)N[C@@H](CCCCN)C(=O)N[C@@H](CC(C)C)C(=O)N[C@@H](CCCCN)C(=O)N[C@@H](Cc1c[nH]c2ccccc12)C(=O)N[C@@H](CC(=O)O)C(=O)N[C@@H](CC(N)=O)C(=O)N[C@@H](CCC(N)=O)C(=O)O [DYNORPHIN A (1-17)] | 5.5 | 
4 | CC(C)C[C@H](NC(=O)[C@H](Cc1ccccc1)NC(=O)CNC(=O)[C@@H](C)NC(=O)[C@@H](N)Cc1ccc(O)cc1)C(=O)N[C@@H](CCCNC(=N)N)C(=O)N[C@@H](CCCCN)C(=O)N[C@@H](Cc1ccc(I)cc1)C(=O)N1CCC[C@H]1C(=O)N[C@@H](CCCCN)C(=O)O (H-Y[dA]GFLRK[Phe(4-I)]PK-OH) |  | Bmax (Mus musculus): 465 fmol/mg
5 | C[C@@H](NC(=O)[C@@H](N)Cc1ccc(O)cc1)C(=O)NCC(=O)N(C)[C@@H](Cc1ccccc1)C(=O)NCCO [DAMGO] | 1.4 | 
6 | CC(C)C[C@H](NC(=O)[C@H](Cc1ccccc1)NC(=O)CNC(=O)CNC(=O)[C@@H](N)Cc1ccc(O)cc1)C(=O)N[C@@H](CCCNC(=N)N)C(=O)N[C@@H](CCCCN)C(=O)N[C@@H](Cc1ccc(O)cc1)C(=O)N1CCC[C@H]1C(=O)N[C@@H](CCCCN)C(=O)O (H-YGGFLRKYPK-OH) | 9.8 | Ki [3]: 2.4 nM; Ki [4]: 1.7 nM

From ChEMBL document CHEMBL2407029 (Bioorg Med Chem Lett, 2013)
